Measured values taken from US20210368825A1, “FEED ADDITIVE FOR DAIRY CATTLE COMPRISING N-ACETYL-L-TRYPTOPHAN AS ACTIVE INGREDIENT” (CJ CHEILJEDANG CORPORATION, priority 2018, published 2021).
Several values for one entry are separate records, joined by “and”; a condition that tells them apart may be missing. Equal entries are not always repeated.

Tests used:
[1] = tested on: calves born from dairy cattle; experiment: Analysis of weight of calf born from dairy cattle according to NALT feeding; assay type: in vivo, Holstein Friesian cows (calves); conditions: for weight of calf: mother fed NALT 15 g/d in dry period
Excerpt: (§1) From among Holstein Friesian cows in the late stage of gestation corresponding to 60 days before calving, 8 cows were selected in consideration of calving time (expected calving date±15 days), the number of calving (calving number), and the like, and 4 cows were assigned to each of a control (untreated) and a treated group.
(§2) In the present disclosure, as a basal diet fed during a dry period and a milking period, total mixed ration (TMR), roughage, and concentrates were provided in accordance with NRC (2001) nutrition requirements for dry cows. In the case of the treated group, evaluation was performed by supplementing N-acetyl-L-tryptophan (NALT) to the basal diet. Newborn calves were fed with colostrum for 3 days and then fed with milk obtained during a milking process for 8 weeks.
(§3) Evaluation of feed feeding before calving by feeding N-acetyl-L-tryptophan was performed for 60±8 days (error caused by difference in expected calving dates). The control was fed with the basal diet, and the treated group was fed with the basal diet supplemented with 15 g of NALT.
Weights of calves born from dairy cattle used for the experiment were measured after drying the body surface immediately after calving (before feeding colostrum; using a scale, GL-6000S Series, G-Tech International Co., LTD), and then weights were measured four times in total for 8 weeks at an interval of 2 weeks (weight before feeding milk). Colostrum was obtained from mother cows and fed to calves at 3 a.m. and 3 p.m. until 3 days after calving. Then, 3.8 L of milk was provided per day, and the concentrates were available without limitation from a feed bucket separately for individual animals.

[2] = tested on: milking cows after calving; experiment: Analysis of milk yield of dairy cattle after calving according to NALT feeding; assay type: in vivo, Holstein Friesian cows
Excerpt: as §1, §2, §3
Milk yield of each of the 8 milking cows used in the present disclosure was recorded at 3 a.m. and 3 p.m. every day for 8 weeks, and average milk yield was calculated after pooling them every two weeks after calving.

[3] = tested on: dairy cattle after calving; experiment: Change in hematological properties of dairy cattle after calving according to NALT feeding; assay type: in vivo, Holstein Friesian cows
Excerpt: as §1, §2, §3
(§4) Blood was collected from dairy cattle and calves during 6 weeks of the dry period and immediately after calving via the jugular vein before feeding a morning feed every 2 weeks for 8 weeks. The collected blood was aliquoted into a serum tube (BD Vacutainer, Plymouth, UK) and a heparin tube (Becton-Dickinson, Belliver Industrial Estate, Plymouth, PL6 7BP, UK) and centrifuged (3,500 rpm, 15 min, 20° C.) to separate plasma.
Blood samples for analysis of changes in hematological properties such as white blood cells (WBC), lymphocytes, monocytes, granulocytes, mean corpuscular volume, mean corpuscular hemoglobin, and platelets were aliquoted into an ethylenediaminetetraacetic acid (EDTA)-treated vacutainer (Becton-Dickinson, Franklin Lakes, N.J., USA) and analyzed using a VetScan HM2 Hematology System (ABAXIS, Calif., USA).

[4] = tested on: dairy cattle after calving; parameters: species or system Holstein Friesian cows; conditions: in vivo
Excerpt: as §1, §2, §3, §4
(§5) Samples for analysis of metabolic changes such as albumin, glutamic-oxalacetic transaminase (GOT), blood urea nitrogen (BUN), triglycerides (TG), cholesterol (CHO), glucose (GLU), and non-esterified fatty acid (NEFA) were aliquoted into a 1.5 mL tube (Eppendorf AG, Hamburg, Germany) in an amount of 500 μL each and stored in a deep freezer at −80° C.

[5] = tested on: dairy cattle in dry period; parameters: species or system Holstein Friesian cows; conditions: in vivo
Excerpt: as §1, §2, §3, §4, §5

effect on hematological properties of dairy cattle compared with control [3]: did not significantly affect | Monocyte ([3]; 0 wk, reference 0-0.84): 0.92 K/uL | Granulocyte ([3]; 0 wk, reference 0.6-6.7): 6.41 K/uL | Lymphocyte ([3]; 0 wk, reference 2.5-7.5): 7.99 K/uL | WBC ([3]; 0 wk, reference 4-12): 15.32 K/uL | MCH ([3]; 0 wk, reference 11-17): 16.80 pg | MCV ([3]; 0 wk, reference 40-60): 47.00 fL | Platelet ([3]; 0 wk, reference 100-800): 348.75 K/ul | Monocyte, total AVG ([3]; average 0 to 8 weeks, reference 0-0.84): 0.91 K/uL | Granulocyte, total AVG ([3]; average 0 to 8 weeks, reference 0.6-6.7): 5.18 K/uL | Lymphocyte, total AVG ([3]; average 0 to 8 weeks, reference 2.5-7.5): 7.86 K/uL | WBC, total AVG ([3]; average 0 to 8 weeks, reference 4-12): 13.95 K/uL | MCH, total AVG ([3]; average 0 to 8 weeks, reference 11-17): 16.60 pg | MCV, total AVG ([3]; average 0 to 8 weeks, reference 40-60): 46.55 fL | Platelet, total AVG ([3]; average 0 to 8 weeks, reference 100-800): 480.51 K/ul | Albumin [4]: 3.73 g/dL | Albumin, total AVG [4]: 4.01 g/dL | BUN [4]: 10.75 mg/dL | BUN, total AVG [4]: 16.75 mg/dL | CHO [4]: 101.25 mg/dL | CHO, total AVG [4]: 188.45 mg/dL | GLU [4]: 83.75 mg/dL | GLU, total AVG [4]: 68.35 mg/dL | GOT [4]: 87.00 U/L | GOT, total AVG [4]: 89.65 U/L | TG [4]: 8.00 mg/dL | TG, total AVG [4]: 9.45 mg/dL | effect on metabolic changes of dairy cattle compared with control [4]: did not significantly affect | Albumin [5]: 3.93 g/dL | Albumin, total AVG [5]: 3.74 g/dL | BUN [5]: 12.25 mg/dL | BUN, total AVG [5]: 9.88 mg/dL | CHO [5]: 194.00 mg/dL | CHO, total AVG [5]: 143.08 mg/dL | GLU [5]: 50.00 mg/dL | GLU, total AVG [5]: 50.52 mg/dL | GOT [5]: 82.50 U/L | GOT, total AVG [5]: 80.92 U/L | TG [5]: 16.25 mg/dL | TG, total AVG [5]: 19.88 mg/dL | effect on metabolic changes of dairy cattle compared with control [5]: did not significantly affect
SMILES: CC(=O)N[C@@H](Cc1c[nH]c2ccccc12)C(=O)O [NALT, N-acetyl-L-tryptophan]
weight of calf, Increment ([1]; 0 to 8 wk): 28.28 kg | weight of calf ([1]; 0 wk (birth weight)): 41.43 kg | weight of calf ([1]; 2 wk after birth): 46.05 kg | weight of calf ([1]; 4 wk after birth): 52.75 kg | weight of calf ([1]; 6 wk after birth): 60.95 kg | weight of calf ([1]; 8 wk after birth): 69.70 kg | weight of calf, total AVG ([1]; average 0 to 8 wk): 54.18 kg | birth weight of calves greater than control ([1]; week 0, on average): 5.47 kg and 5.53 kg | average weight of calves greater than control ([1]; week 2): 5.1 kg | average weight of calves greater than control ([1]; week 4): 4.67 kg | average weight of calves greater than control ([1]; week 6): 4.22 kg | average weight of calves greater than control ([1]; week 8): 5.9 kg | average weight of calves greater than control ([1]; weeks 2, 4, 6 and 8 overall): about 5 kg | Milk yield ([2]; 0 wk (immediately after calving)): 24.03 kg | increase in average milk yield compared with control ([2]; 8 weeks after calving): ≥ 4 kg | Milk yield, total AVG ([2]; average over 8 weeks after calving): 35.44 kg
